“Also recorded” adds a separate entry of the source. Structures can show the parent of a compound that is named as a salt.
How the values were obtained:
Male Sprague Dawley rats = test: Brennan surgical pain model (mechanical allodynia by von Frey filaments, mechanical hyperalgesia by pin-prick test); format: in vivo, rat; details: for Efficacy for reduction of post-surgical pain at a surgical wound site: in the oxidized regenerated cellulose-based system, MPE greater than 30 percent considered efficacious
Experimental: In order to evaluate the analgesic efficacy of the composition containing oxidized regenerated cellulose particles dry blended with an NSAID powder (diclofenac sodium), the Brennan surgical pain model was used (Characterization of a rat model of incisional pain, Brennan, T. J., et al., Pain: 64 (1996); 493-501). The model was performed as follows. Male Sprague Dawley rats weighing 250-300 grams were used throughout the experiment. Prior to surgery, each animal was habituated to the testing environment and a baseline response to Semmes-Weinstein (von Frey) filaments was established. Animals were anesthetized using a fresh mixture of xylazine and ketamine containing 100 mg ketamine/ml and 20 mg xylazine/ml. Each animal was injected intramuscularly with 1 ml/kg to achieve surgical anesthesia. The left hind paw was aseptically prepared and a 1 cm incision through the skin and fascia was made on the plantar surface of the hind paw, extending from the ankle distally. The middle digital tendon was isolated and crushed using mosquito hemostats for 20 seconds. Following surgery animals were tested for mechanical sensitivity at 4, 24, 48, 72 and 96 hours following surgery.
Ten rats were evaluated in each of the following groups:
Group 1. Control group: all animals were given intraperitoneal (IP) injections of saline (1 ml/kg) 1 hour before testing for mechanical allodynia and hyperalgesia.
This equates to a total of 1 mg of diclofenac sodium or approximately 4 mg/kg for a 250 g animal.
Group 3: Immediately post-tendon crush, a single dose (20 mg of micronized oxidized regenerated cellulose with an approximate particle size of 20-25 microns blended with […]) was mixed with 100 microliters of a sterile saline solution. The composition was then applied to the site of the crushed tendon.
This equates to a total of 0.5 mg of diclofenac sodium or approximately 2 mg/kg for a 250 g animal. […]
This equates to a total of 2.0 mg of diclofenac sodium or approximately 8 mg/kg for a 250 g animal.
The pin-prick test was used to assess mechanical hyperalgesia. Briefly, a blunted safety pin was used to gently tent the plantar skin of each hind paw without breaking the skin. A stopwatch was used to measure the withdrawal time following this stimulus. Increased withdrawal time (in seconds) was interpreted as mechanical hyperalgesia.
Mechanical sensitivity or mechanical allodynia from each time point was normalized against the negative control group and against each individual animal's pre-surgical mechanical sensitivity. Mechanical sensitivity was assessed using a procedure described by Chaplan et al. (J. Neurosci. Methods 1994, 53: 55-63). A series of von Frey filaments of varying rigidity strength (typically eight filaments in the series) were applied to the plantar surface of the hind paw ipsilateral to the ligations with just enough force to bend the filament. […] A positive allodynic response consists of lifting the affected paw followed immediately by licking or shaking of the paw. The order and frequency with which the filaments were applied was determined using the Dixon up-down method. Testing was initiated with the middle filament of the series with subsequent filaments being applied in consecutive fashion, ascending or descending, depending on whether a negative or positive response, respectively, was obtained with the initial filament.
Results are expressed as percent of Maximal Potential Efficacy (% MPE).

[1] = Pharmacokinetic evaluation of diclofenac release in a rat model (plasma and incision-site tissue, LC/MS/MS); format: in vivo
Experimental: Pharmacokinetic studies in a rat model were conducted to determine the rate of diclofenac release from the composition. Male Sprague Dawley rats (four rats per time point per group) were anesthetized with isoflurane and subjected to a single surgical incision on the plantar surface of the left hind paw. The medial tendon was exposed by blunt dissection and subjected to a 20 second clamp using a mosquito hemostat.
In Group 1 the incision was sutured closed following manipulation of the tendon. The rats were administered an intraperitoneal injection of 5 mg/kg Diclofenac (as sodium salt, saline vehicle) 4 hours and 23 hours post-surgery. Blood and tissue samples were harvested at 0.25, 1, 4 and 6 hours after the second dose.
In Group 2, oxidized regenerated cellulose (Surgicel® Fibrillar absorbable hemostat) was implanted between the tendon and the metatarsals and 0.5 mg of Diclofenac (as sodium salt, saline vehicle) was instilled directly into the wound site and the incision was sutured closed. Blood samples were taken at 0.25,1, 4, 6, 24 and 48 hours post surgery.
Blood was harvested into K-EDTA tubes via cardiac puncture while the rats were anesthetized with isoflurane. Rats were terminated immediately after the blood draw by CO2 inhalation, and the skin, muscle fascia and tendon of the left hind paw incision site were harvested. The contralateral tissue of the right hind paw was harvested and retained separately.
Blood samples were centrifuged to yield plasma, the resulting plasma as well as tissue samples were sent to Covance, Madison Wis. for LC/MS/MS analysis of diclofenac. Briefly, the analytical method involves extracting ˜50 mg of tissue or 50 uL of plasma w/acetonitrile; the residue of the ACN extract is analyzed by tandem mass spectroscopy. The dynamic ranges of the plasma and tissue assays were 25 to 12,500 ng/mL and 25 to 12,500 ng/g, respectively.

[2] = Micronized (20–25 um) oxidized regenerated cellulose, dry/powder, 1 mg
[3] = Surgicel Fibrillar absorbable hemostat 6 × 6 mm, solution, 1.0 mg
[4] = Surgicel Fibrillar absorbable hemostat 6 × 6 mm, solution, 0.5 mg

SMILES: Cc1cccc(C)c1NC(=O)C1CCCCN1C (stereo not drawn) [Mepiv Sol'n, mepivacaine hydrochloride]
- Efficacy (duration of analgesic effect) (Male Sprague Dawley rats; Intraplantar injection, solution, 1.0 mg): 4 h
- Efficacy (duration of analgesic effect) (Male Sprague Dawley rats; [2]): Ineffec-
- Efficacy (duration of analgesic effect) (Male Sprague Dawley rats; Repeated IPL injec., solution, 1.0 mg): 72+ Hrs
- Efficacy (duration of analgesic effect) (Male Sprague Dawley rats; [3]): 4 Hrs effect

SMILES: COc1cccc(C2(O)CCCCC2CN(C)C)c1 (stereo not drawn) [Tramadol Sol'n, tramadol]
- Efficacy (duration of analgesic effect) (Male Sprague Dawley rats; Surgicel Fibrillar absorbable hemostat 6 × 6 mm, solution, 2 mg): 24 h

SMILES: CC(C(=O)O)c1cccc(C(=O)c2ccccc2)c1 (stereo not drawn) [Ketoprofen Sol'n, ketoprofen]
- Efficacy (duration of analgesic effect) (Male Sprague Dawley rats; [4]): Ineffective
- Efficacy for reduction of post-surgical pain at a surgical wound site (Male Sprague Dawley rats): neither indomethacin nor ketoprofen is efficacious

SMILES: O=C(O)Cc1ccccc1Nc1c(Cl)cccc1Cl [DCF Free acid, 2-((2,6-ichlorophenyl)amino)benzeneacetic acid]
- Efficacy for reduction of post-surgical pain at a surgical wound site (Male Sprague Dawley rats): surprisingly efficacious
- Diclofenac concentrations at the surgical site ([1]; after local administration of composition containing oxidized regenerated cellulose and diclofenac, FIG. 3A): remaining relatively high; also recorded: remained relatively high
- Tissue concentrations of diclofenac ([1]; intraperitoneal injection of diclofenac solution, FIG. 3A): rapid decline
- Plasma concentrations of diclofenac, local administration compared with systemic administration ([1]; local administration from the composition, FIG. 3B): much lower

SMILES: COc1ccc2c(c1)c(CC(=O)O)c(C)n2C(=O)c1ccc(Cl)cc1 [Inodmethacin Sol'n, indomethacin]
- Efficacy (duration of analgesic effect) (Male Sprague Dawley rats; [4]): Ineffective
- Efficacy for reduction of post-surgical pain at a surgical wound site (Male Sprague Dawley rats): neither indomethacin nor ketoprofen is efficacious

SMILES: O=C(O)Cc1ccccc1Nc1c(Cl)cccc1Cl [DCF Sol'n, 2-[(2,6-dichlorophenyl)amino]-Benzeneacetic acid, monosodium salt]
- Period of analgesia (Male Sprague Dawley rats; 6 mm×6 mm Surgicel Fibrillar oxidized regenerated cellulose plus diclofenac sodium and saline): 48 h
- Benefit at 72 hours (Male Sprague Dawley rats; 6 mm×6 mm Surgicel Fibrillar oxidized regenerated cellulose plus diclofenac sodium and saline, 72 hours): smaller benefit
- Efficacy (duration of analgesic effect) (Male Sprague Dawley rats; Interceed absorbable adhesion barrier 6 × 6 mm, solution, 0.5 mg): 48 h
- Efficacy (duration of analgesic effect) (Male Sprague Dawley rats; Intraplantar injection, solution, 0.5 mg): 4 h
- Efficacy (duration of analgesic effect) (Male Sprague Dawley rats; [2]): 72 h
- Efficacy (duration of analgesic effect) (Male Sprague Dawley rats; Micronized (20–25 um) oxidized regenerated cellulose, solution, 1.0 mg, applied at crushed tendon): 72 h
- Significant increase in analgesic effect, through (Male Sprague Dawley rats; Micronized oxidized regenerated cellulose (20-25 micron) mixed with diclofenac sodium and saline): 72 h
- Effect at 96 hours (Male Sprague Dawley rats; Micronized oxidized regenerated cellulose (20-25 micron) mixed with diclofenac sodium and saline, 96 hours): some effect
- Efficacy (duration of analgesic effect) (Male Sprague Dawley rats; Repeated IPL injec., solution, 0.5 mg): 4 h
- Efficacy (duration of analgesic effect) (Male Sprague Dawley rats; [4]): 48 h
- Efficacy (duration of analgesic effect) (Male Sprague Dawley rats; [3]): 48 h
